Test results reported in ChEMBL document CHEMBL1152301, “Substitution of aminomethyl at the meta-position enhances the inactivation of O6-alkylguanine-DNA alkyltransferase by O6-benzylguanine” (J Med Chem, 2008).
Changes are numbered by the printed parent chain. Active and inactive are the calls of the source. The calls are words filed in the database; no cut-off is given here.

Assays:
[1] = molecular target: T1, Methylated-DNA--protein-cysteine methyltransferase (Homo sapiens) (UniProt P16455)
T1 sequence (whole entry): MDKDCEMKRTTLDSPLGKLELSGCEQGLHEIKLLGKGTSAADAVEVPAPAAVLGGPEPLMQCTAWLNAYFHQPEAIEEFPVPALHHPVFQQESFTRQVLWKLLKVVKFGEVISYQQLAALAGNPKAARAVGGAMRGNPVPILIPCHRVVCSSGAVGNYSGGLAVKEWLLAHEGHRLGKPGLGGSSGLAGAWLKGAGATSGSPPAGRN
Description: Inactivation of histidine6-tagged wild type human recombinant O-6-alkylguanine-DNA-alkyltransferase expressed in Escherichia coli assessed as [3H]methylated protein formation in absence of [3H]methylated calf thymus DNA

[2] = molecular target: T1, Methylated-DNA--protein-cysteine methyltransferase (Homo sapiens); remark: listed apart in the source
Description: Inactivation of histidine6-tagged wild type human recombinant O-6-alkylguanine-DNA-alkyltransferase expressed in Escherichia coli assessed as [3H]methylated protein formation in presence of [3H]methylated calf thymus DNA

HT-29 = assay: Sensitization of human HT-29 cells to BCNU-induced cytotoxicity assessed as survival treated for 2 hrs before BCNU challenge measured after 16 to 18 hrs by colony forming assay; type: functional, cell-based
[3] = system: T2, Methylated-DNA--protein-cysteine methyltransferase (Homo sapiens), P16455 [S159A]
T2 sequence (whole entry): T1 sequence (whole entry) with S159A
Description: Inactivation of histidine6-tagged human recombinant O-6-alkylguanine-DNA-alkyltransferase S159A mutant expressed in Escherichia coli assessed as [3H]methylated protein formation in absence of [3H]methylated calf thymus DNA

[4] = system: T2, Methylated-DNA--protein-cysteine methyltransferase (Homo sapiens), P16455 [S159A]; remark: listed apart in the source
Description: Inactivation of histidine6-tagged human recombinant O-6-alkylguanine-DNA-alkyltransferase S159A mutant expressed in Escherichia coli assessed as [3H]methylated protein formation in presence of [3H]methylated calf thymus DNA

[5] = molecular target: T1, Methylated-DNA--protein-cysteine methyltransferase (Homo sapiens); assay: Inactivation of human O-6-alkylguanine-DNA-alkyltransferase in human HT-29 cells at 1 uM after 30 mins by reverse-phase HPLC in presence of [3H]methylated calf thymus DNA
[6] = molecular target: T1, Methylated-DNA--protein-cysteine methyltransferase (Homo sapiens); assay: Inactivation of histidine6-tagged human recombinant O-6-alkylguanine-DNA-alkyltransferase expressed in Escherichia coli assessed as [3H]methylated protein formation at 1 mM
[7] = Stability assessed as N6-[2-(hydroxymethyl)-benzyl]-2-aminoadenine formation in aqueous solution; type: physicochemical; settings: buffer

ED50 [1]	ED50 [2]	ED50 [3]	ED50 [4]	inhibition [5]	inhibition [6]	t1/2 [7]	SMILES	Activity (HT-29)
185 µM	90 µM	–	–	–	–	–	Cc1ccccc1COc1nc(N)nc2nc[nH]c12	–
0.32 µM	–	–	–	–	–	–	Cc1ccc(COc2nc(N)nc3nc[nH]c23)cc1	–
80 µM	45 µM	–	–	–	–	–	NCc1ccccc1COc1nc(N)nc2nc[nH]c12	–
0.25 µM	0.16 µM	–	–	–	–	–	Cc1cccc(COc2nc(N)nc3nc[nH]c23)c1	–
0.23 µM	0.053 µM	0.16 µM	0.028 µM	20%	–	–	NCc1ccc(COc2nc(N)nc3nc[nH]c23)cc1	Active
> 1000 µM	> 1000 µM	–	–	–	< 10%	50 h	Nc1nc(NCc2ccccc2CO)c2[nH]cnc2n1	–
